Source: ChEMBL document CHEMBL4699634, “Series of Novel and Highly Potent Cyclic Peptide PCSK9 Inhibitors Derived from an mRNA Display Screen and Optimized via Structure-Based Design” (J Med Chem, 2020)

Columns and labels:
[1] = target: PCSK9/LDLR (Homo sapiens, UniProt Q8NBP7); test: Inhibition of avi-tagged-biotinylated human PCSK9 interaction with His-tagged human LDLR EGFa domain by LANCE Ulight Streptavidin based TR-FRET assay; format: protein assay
[2] = AUC (0 to infinity) in C57BL/6 mouse at 1 mg/kg, iv by LC-MS/MS analysis; format: ADME, organism-based; design: route intravenous, time infinity, dose 1 mg/kg; conditions: C57BL/6, mouse, in vivo
[3] = AUC (0 to X) in C57BL/6 mouse at 1 mg/kg, iv by LC-MS/MS analysis; format: ADME, organism-based; design: dose 1 mg/kg; conditions: in vivo
[4] = Clearance in C57BL/6 mouse at 1 mg/kg, iv by LC-MS/MS analysis; format: ADME, organism-based; conditions: in vivo
[5] = Volume of distribution at steady state in C57BL/6 mouse at 1 mg/kg, iv by LC-MS/MS analysis; format: ADME, organism-based; conditions: in vivo, read-out: Vdss
[6] = Half life in C57BL/6 mouse at 1 mg/kg, iv by LC-MS/MS analysis; format: ADME, organism-based; conditions: in vivo
[7] = Protein binding in mouse plasma at 2.5 uM measured after 4 hrs by equilibrium dialysis based LC-MS/MS analysis; format: ADME, cell-free; conditions: read-out: PPB (converted)
[8] = target: Chymotrypsinogen A (Bos taurus, UniProt P00766); test: Enzymatic stability assessed as bovine pancreatic alpha-chymotrypsin-mediated compound hydrolysis by measuring parent compound remaining at 100 uM incubated for 1 hr by LC-MS/MS analysis; format: ADME; conditions: cattle, read-out: Stabilty
[9] = target: Chymotrypsin-like elastase family member 1 (Sus scrofa, UniProt P00772); test: Enzymatic stability assessed as porcine type 4 pancreatic elastase-mediated compound hydrolysis by measuring parent compound remaining at 100 uM incubated for 1 hr by LC-MS/MS analysis; format: ADME; conditions: pig, read-out: Stabilty
[10] = Enzymatic stability assessed as porcine pepsin-mediated compound hydrolysis by measuring parent compound remaining at 100 uM incubated for 1 hr by LC-MS/MS analysis; format: ADME, Sus scrofa; conditions: pig, read-out: Stabilty
[11] = Enzymatic stability assessed as bovine pancreatic trypsin-mediated compound hydrolysis by measuring parent compound remaining at 100 uM incubated for 1 hr by LC-MS/MS analysis; format: ADME, Bos taurus; conditions: cattle, read-out: Stabilty
[12] = Half life in C57BL/6 mouse whole blood at 100 uM by LC-MS/MS analysis; format: ADME, tissue-based
[13] = Half life in cynomolgus monkey whole blood at 100 uM by LC-MS/MS analysis; format: ADME, tissue-based, Macaca fascicularis
[14] = target: Proprotein convertase subtilisin/kexin type 9 (Homo sapiens, UniProt Q8NBP7); test: Inhibition of AlexaFluor647-tagged cyclic peptide binding to avi-tagged-biotinylated human PCSK9 measured after 2 hrs by Lance Streptavidin Europium based FRET assay
[15] = Induction of mast cell degranulation in Wistar rat isolated peritoneal cells assessed as effect on histamine release measured after 30 mins; format: tissue-based; conditions: Rattus norvegicus, Wistar, Mast cell, 0.5 h; read-out: EC50
[16] = Cytotoxicity against Wistar rat isolated peritoneal cells assessed as reduction in cell viability up to 60 uM measured after 30 mins; format: cell-based; conditions: peritoneal macrophage cell, 0.5 h

Chymotrypsin-like elastase family member 1, sequence (P00772 whole entry): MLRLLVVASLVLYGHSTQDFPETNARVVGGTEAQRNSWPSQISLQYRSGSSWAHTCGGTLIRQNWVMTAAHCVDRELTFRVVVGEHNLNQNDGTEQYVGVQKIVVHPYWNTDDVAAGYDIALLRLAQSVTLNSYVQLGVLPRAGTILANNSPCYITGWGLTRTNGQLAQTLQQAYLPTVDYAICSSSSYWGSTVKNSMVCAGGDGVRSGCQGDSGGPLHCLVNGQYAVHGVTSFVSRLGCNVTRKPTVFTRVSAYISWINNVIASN
PCSK9/LDLR, sequence (Q8NBP7 31-152 limits assumed): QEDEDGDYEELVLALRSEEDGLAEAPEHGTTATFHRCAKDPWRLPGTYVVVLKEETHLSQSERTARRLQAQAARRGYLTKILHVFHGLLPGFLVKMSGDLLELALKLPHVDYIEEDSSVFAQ
PCSK9/LDLR, sequence (Q8NBP7 153-692 limits assumed): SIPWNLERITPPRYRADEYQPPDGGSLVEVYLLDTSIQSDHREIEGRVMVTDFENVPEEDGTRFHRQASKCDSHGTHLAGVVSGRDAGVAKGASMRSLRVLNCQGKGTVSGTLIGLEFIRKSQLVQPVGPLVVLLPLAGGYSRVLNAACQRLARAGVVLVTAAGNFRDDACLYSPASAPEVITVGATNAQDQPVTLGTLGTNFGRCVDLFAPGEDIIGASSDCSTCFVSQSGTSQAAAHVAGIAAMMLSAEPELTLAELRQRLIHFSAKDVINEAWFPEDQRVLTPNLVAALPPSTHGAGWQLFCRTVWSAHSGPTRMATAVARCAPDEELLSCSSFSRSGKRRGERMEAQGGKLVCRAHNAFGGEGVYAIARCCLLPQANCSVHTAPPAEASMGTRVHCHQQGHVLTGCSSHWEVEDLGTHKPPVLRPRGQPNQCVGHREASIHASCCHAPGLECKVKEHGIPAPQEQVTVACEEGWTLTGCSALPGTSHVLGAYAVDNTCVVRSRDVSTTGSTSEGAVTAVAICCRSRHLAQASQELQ
PCSK9/LDLR, sequence (P01130 22-860 partner limits assumed): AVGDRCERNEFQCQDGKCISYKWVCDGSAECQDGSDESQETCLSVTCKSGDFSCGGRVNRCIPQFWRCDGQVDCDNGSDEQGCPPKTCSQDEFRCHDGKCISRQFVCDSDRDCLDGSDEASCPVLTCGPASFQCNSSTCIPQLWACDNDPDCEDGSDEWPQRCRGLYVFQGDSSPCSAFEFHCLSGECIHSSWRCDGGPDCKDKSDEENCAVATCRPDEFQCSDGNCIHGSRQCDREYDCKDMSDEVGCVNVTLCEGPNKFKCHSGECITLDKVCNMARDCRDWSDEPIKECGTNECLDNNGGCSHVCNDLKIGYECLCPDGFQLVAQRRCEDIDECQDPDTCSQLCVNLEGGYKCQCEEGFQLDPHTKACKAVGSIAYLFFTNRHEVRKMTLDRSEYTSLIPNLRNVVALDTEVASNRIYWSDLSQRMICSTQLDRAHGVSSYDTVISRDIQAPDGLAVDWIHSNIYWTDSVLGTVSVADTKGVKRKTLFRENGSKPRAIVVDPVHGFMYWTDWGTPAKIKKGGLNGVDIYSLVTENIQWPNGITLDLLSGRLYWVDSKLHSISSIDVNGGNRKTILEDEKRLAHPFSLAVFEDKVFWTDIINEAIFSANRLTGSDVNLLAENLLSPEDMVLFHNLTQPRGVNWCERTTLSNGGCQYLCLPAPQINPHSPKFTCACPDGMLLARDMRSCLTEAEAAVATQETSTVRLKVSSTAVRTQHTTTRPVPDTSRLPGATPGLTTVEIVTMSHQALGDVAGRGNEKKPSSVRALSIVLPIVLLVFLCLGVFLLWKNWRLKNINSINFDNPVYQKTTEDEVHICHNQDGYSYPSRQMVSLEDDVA
Proprotein convertase subtilisin/kexin type 9, sequence (Q8NBP7 31-152 limits assumed): as the sequence (Q8NBP7 31-152 limits assumed) above
Proprotein convertase subtilisin/kexin type 9, sequence (Q8NBP7 153-692 limits assumed): as the sequence (Q8NBP7 153-692 limits assumed) above

Compound | Ki [1] [nM] | AUC(0-inf) [2] [µM·h] | AUC [3] [µM·h] | clearance [4] [mL/min/kg] | Vd [5] [L/kg] | half-life [6] [h] | fraction unbound at 4 h, 2.5 µM [7] | remaining at 1 h, 100 µM [8] [%] | remaining at 1 h, 100 µM [9] [%] | remaining at 1 h, 100 µM [10] [%] | remaining at 1 h, 100 µM [11] [%] | half-life at 100 µM [12] [h] | half-life at 100 µM [13] [h] | Ki [14] [nM] | EC50 [15] [nM] | Activity [16]
C[C@H]1NC(=O)[C@H](CCCCN)NC(=O)CCSCc2cccc(c2)CSCCNC(=O)[C@]2(C)CCCN2C(=O)[C@H](Cc2ccc(O)cc2)NC(=O)[C@H](Cc2cnc[nH]2)NC(=O)[C@H](CC(=O)O)NC(=O)[C@H](Cc2c[nH]c3ccc(F)cc23)NC(=O)[C@H](Cc2c[nH]c3ccc(F)cc23)NC1=O | 23.3 | 0.492 | 0.491 | 24.2 | 0.29 | 0.78 | 0.0077 | 42.7 | 99.1 | 93.7 | 79.5 | 3.1 | > 6 | 4.2 |  | 
NCCCC[C@@H]1NC(=O)CCSCc2cccc(c2)CSC[C@@H](C(N)=O)NC(=O)[C@@H]2CCCN2C(=O)[C@H](Cc2ccc(O)cc2)NC(=O)[C@H](Cc2c[nH]cn2)NC(=O)[C@H](CC(=O)O)NC(=O)[C@H](Cc2c[nH]c3ccc(F)cc23)NC(=O)[C@H](Cc2c[nH]c3ccc(F)cc23)NC(=O)CNC1=O | 110 | 0.242 | 0.241 | 51.7 | 0.7 | 1.04 | 0.0498 | 12 | 60.7 | 95 | 1.2 | 1.05 |  |  | 6670 | Non-Toxic
CC(C)[C@H]1NC(=O)[C@H](CCCCN)NC(=O)CCSCc2cccc(c2)CSCCNC(=O)[C@]2(C)CCCN2C(=O)[C@H](Cc2ccc(O)cc2)NC(=O)[C@H](Cc2cnc[nH]2)NC(=O)[C@H](CC(=O)O)NC(=O)[C@H](Cc2c[nH]c3ccc(F)cc23)NC(=O)[C@H](Cc2c[nH]c3ccc(F)cc23)NC1=O | 17.6 | 2.51 | 2.49 | 4.62 | 0.1 | 0.25 | 0.001 | 76.4 | 100 | 100 | 94.3 | > 6 |  | 6.3 |  | 
